Results: patent publication US8959984B2, “Proteome-wide quantification of small molecule binding to cellular target proteins” (priority 2007, dated 2015)
Like-named read-outs stand apart in the source and are kept apart here.

Tests used:
Assay in all cases: binding to immobilized V16742 (IVA1/IVA2, HeLa lysate, MS)
[1] = biological target: T1, CDK7 (Homo sapiens, UniProt P50613)
T1 construct: endogenous in cells; host or cells: HeLa S3

[2] = biological target: T2, CaMKK1 (Homo sapiens, UniProt Q8N5S9)
T2 construct: endogenous in cells; host or cells: HeLa S3

[3] = biological target: T3, MAP3K5 (Homo sapiens, UniProt Q99683)
T3 construct: endogenous in cells; host or cells: HeLa S3
T3 sequence (Q99683 1-1374): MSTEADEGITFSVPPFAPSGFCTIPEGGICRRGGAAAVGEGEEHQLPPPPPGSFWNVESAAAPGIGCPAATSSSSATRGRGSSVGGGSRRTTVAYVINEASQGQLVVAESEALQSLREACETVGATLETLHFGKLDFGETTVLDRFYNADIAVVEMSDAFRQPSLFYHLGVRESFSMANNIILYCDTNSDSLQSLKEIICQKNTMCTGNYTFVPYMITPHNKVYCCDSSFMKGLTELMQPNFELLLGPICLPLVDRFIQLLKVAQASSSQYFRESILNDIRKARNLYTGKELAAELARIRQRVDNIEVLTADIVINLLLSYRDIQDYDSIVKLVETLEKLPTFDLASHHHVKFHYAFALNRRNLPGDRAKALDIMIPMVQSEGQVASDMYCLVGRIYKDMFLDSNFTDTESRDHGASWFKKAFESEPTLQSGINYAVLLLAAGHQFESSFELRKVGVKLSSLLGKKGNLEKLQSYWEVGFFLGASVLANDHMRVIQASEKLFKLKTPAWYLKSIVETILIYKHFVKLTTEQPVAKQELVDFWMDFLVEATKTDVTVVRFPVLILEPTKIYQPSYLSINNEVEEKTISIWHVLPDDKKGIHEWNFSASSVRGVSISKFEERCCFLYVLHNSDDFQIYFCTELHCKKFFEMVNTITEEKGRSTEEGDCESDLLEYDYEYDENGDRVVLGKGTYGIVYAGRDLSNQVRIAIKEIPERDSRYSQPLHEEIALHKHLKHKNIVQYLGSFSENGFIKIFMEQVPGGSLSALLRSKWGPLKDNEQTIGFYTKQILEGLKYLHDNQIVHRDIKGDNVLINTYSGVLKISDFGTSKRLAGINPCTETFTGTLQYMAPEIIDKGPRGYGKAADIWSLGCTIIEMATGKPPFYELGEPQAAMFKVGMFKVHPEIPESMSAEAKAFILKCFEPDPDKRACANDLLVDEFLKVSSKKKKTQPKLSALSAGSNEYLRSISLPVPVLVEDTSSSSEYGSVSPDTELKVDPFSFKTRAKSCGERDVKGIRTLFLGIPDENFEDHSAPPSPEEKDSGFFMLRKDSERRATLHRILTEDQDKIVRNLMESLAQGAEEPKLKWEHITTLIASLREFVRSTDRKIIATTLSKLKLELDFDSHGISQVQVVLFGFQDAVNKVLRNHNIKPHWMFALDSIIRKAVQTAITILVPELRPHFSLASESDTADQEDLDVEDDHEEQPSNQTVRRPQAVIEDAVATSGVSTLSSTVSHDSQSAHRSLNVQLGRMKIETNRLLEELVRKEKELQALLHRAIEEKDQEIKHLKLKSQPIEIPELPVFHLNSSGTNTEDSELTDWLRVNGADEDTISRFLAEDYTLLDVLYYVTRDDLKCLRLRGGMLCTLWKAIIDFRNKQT

[4] = average of two experiments, read-out: Kd Avg

T2 sequence (Q8N5S9 whole entry): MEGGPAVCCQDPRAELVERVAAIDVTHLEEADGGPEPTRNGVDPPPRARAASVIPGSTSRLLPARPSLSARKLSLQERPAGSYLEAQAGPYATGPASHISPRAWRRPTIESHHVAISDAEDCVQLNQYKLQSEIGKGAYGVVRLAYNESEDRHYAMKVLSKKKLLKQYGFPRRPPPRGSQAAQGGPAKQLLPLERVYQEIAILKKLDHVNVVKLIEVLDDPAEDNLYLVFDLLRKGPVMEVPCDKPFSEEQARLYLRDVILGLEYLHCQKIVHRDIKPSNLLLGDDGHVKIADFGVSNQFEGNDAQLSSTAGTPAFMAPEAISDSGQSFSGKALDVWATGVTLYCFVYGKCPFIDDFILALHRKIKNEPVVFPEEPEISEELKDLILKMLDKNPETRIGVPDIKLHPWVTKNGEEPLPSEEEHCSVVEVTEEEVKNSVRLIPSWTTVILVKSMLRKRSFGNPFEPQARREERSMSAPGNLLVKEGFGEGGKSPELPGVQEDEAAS
T1 sequence (P50613 whole entry): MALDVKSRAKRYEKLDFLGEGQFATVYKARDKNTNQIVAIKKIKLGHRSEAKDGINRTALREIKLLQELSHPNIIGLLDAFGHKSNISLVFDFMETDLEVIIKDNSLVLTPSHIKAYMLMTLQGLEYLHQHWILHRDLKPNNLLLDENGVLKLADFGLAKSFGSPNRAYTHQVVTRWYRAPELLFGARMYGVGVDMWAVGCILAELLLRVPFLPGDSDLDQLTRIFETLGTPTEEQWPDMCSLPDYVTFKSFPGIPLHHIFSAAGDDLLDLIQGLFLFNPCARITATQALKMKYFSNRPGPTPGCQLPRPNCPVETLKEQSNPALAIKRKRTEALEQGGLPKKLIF

CC(C)n1c(=O)ccc2cnc(Nc3ccc(OCCN)cc3)nc21 [V16742]
Percent bound at various 16742 conc ([1]; Experiment 1, 1.87 μM 16742): 5.76% | Percent bound at various 16742 conc ([1]; Experiment 1, 8.74 μM 16742): 22.04% | Percent bound at various 16742 conc ([1]; Experiment 1, 52 μM 16742): 53.96% | Kd ([1]; Experiment 1, read-out: Kd): 39.8 µM | Percent bound at various 16742 conc ([1]; Experiment 2, 1.87 μM 16742): 2.34% | Percent bound at various 16742 conc ([1]; Experiment 2, 8.74 μM 16742): 13.18% | Percent bound at various 16742 conc ([1]; Experiment 2, 52 μM 16742): 45.57% | Kd ([1]; Experiment 2, read-out: Kd): 61.5 µM | Kd [1, 4]: 50.7 µM | Percent bound at various 16742 conc ([2]; Experiment 1, 1.87 μM 16742): 2.08% | Percent bound at various 16742 conc ([2]; Experiment 1, 8.74 μM 16742): 10.67% | Percent bound at various 16742 conc ([2]; Experiment 1, 52 μM 16742): 63.34% | Kd ([2]; Experiment 1, read-out: Kd): 37.9 µM | Percent bound at various 16742 conc ([2]; Experiment 2, 1.87 μM 16742): 1.46% | Percent bound at various 16742 conc ([2]; Experiment 2, 8.74 μM 16742): 6.65% | Percent bound at various 16742 conc ([2]; Experiment 2, 52 μM 16742): 47.32% | Kd ([2]; Experiment 2, read-out: Kd): 63.9 µM | Kd [2, 4]: 50.9 µM | Percent bound at various 16742 conc ([3]; Experiment 1, 1.87 μM 16742): 7.42% | Percent bound at various 16742 conc ([3]; Experiment 1, 8.74 μM 16742): 10.05% | Percent bound at various 16742 conc ([3]; Experiment 1, 52 μM 16742): 56.90% | Kd ([3]; Experiment 1, read-out: Kd): 44.5 µM | Percent bound at various 16742 conc ([3]; Experiment 2, 1.87 μM 16742): 1.27% | Percent bound at various 16742 conc ([3]; Experiment 2, 8.74 μM 16742): 1.00% | Percent bound at various 16742 conc ([3]; Experiment 2, 52 μM 16742): 17.64% | Kd ([3]; Experiment 2, read-out: Kd): 252 µM | Kd [3, 4]: 148 µM
